# Tests used:
# [1] = target: T1, Human CD73 (amino acid residues 27-549) (Homo sapiens, UniProt P21589); experiment: CD73 enzymatic assay (luciferase-based indirect assay, CellTiter-Glo); type: biochemical; details: 0.4 nM CD73, 150 μM AMP, 1 hour at room temperature
# T1 construct: Human CD73 (amino acid residues 27-549); His tag (N); made in house; host or cells: E. coli
# T1 sequence (P21589 27-549): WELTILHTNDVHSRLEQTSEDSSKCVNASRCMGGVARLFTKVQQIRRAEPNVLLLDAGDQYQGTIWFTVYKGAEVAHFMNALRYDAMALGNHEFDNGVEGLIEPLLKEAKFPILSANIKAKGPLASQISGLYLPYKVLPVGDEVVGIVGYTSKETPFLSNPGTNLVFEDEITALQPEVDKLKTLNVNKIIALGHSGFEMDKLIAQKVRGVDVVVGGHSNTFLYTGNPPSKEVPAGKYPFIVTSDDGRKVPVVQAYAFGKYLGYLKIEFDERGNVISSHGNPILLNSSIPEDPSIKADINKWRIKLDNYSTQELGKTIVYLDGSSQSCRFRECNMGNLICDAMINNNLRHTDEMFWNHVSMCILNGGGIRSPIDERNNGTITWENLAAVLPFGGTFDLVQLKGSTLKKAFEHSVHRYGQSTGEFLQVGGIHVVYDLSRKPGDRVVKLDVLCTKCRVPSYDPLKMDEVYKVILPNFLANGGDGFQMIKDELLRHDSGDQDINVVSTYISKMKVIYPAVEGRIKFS
# In short: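 Residual AMP inhibits luciferase, so luminescence reports CD73 turnover; read with CellTiter-Glo 2.0 plus 1 μM final ATP, 30 min. Reaction used 0.4 nM N-His CD73 (27-549, E. coli), 150 μM AMP, HEPES pH 7.4 with Tween 20, 1 h at room temperature. IC50 fitted by nonlinear regression.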
# human CD73 = target: T2, human CD73 (Homo sapiens, UniProt P21589); experiment: Inhibitor activity against CD73 in cell based assay (CD73 expressing CHO-K1 cells); details: CHO-K1 cells expressing human CD73, 150 μM AMP, 4 hours of incubation; read-out: CHO-K1 CELL VARIANT: CD73 IC50
# T2 construct: expressed in transfected cells
# T2 sequence (P21589 27-549): T1 sequence (P21589 27-549)
# In short: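 Residual supernatant AMP was quantified via CellTiter-Glo luminescence (1 μM ATP added, 30 min, room temperature) after a 4 h exposure of human CD73-expressing CHO-K1 cells to 150 μM AMP plus compound, top final 10 μM, 8 points. IC50 came from nonlinear regression of percent inhibition.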
SMILES,IC50 [1] [µM],IC50 (human CD73) [µM]
"O=C(NC1CCCC(F)(F)C1)O[C@@H]1CCN(c2cn[nH]c(=O)c2Cl)C1 (stereo partly drawn) [P-0424, (R)-1-(5-chloro-6-oxo-1,6-dihydropyridazin-4-yl)pyrrolidin-3-yl (3,3-difluorocyclohexyl)carbamate]",0.001 to 10,0.001 to 10
"CC1CCCC(NC(=O)O[C@@H]2CCN(c3cn[nH]c(=O)c3Cl)C2)C1 (stereo partly drawn) [P-0425, (R)-1-(5-chloro-6-oxo-1,6-dihydropyridazin-4-yl)pyrrolidin-3-yl (3-methylcyclohexyl)carbamate]",0.001 to 10,0.001 to 10
"O=C(NC1CCCC12CC2)O[C@@H]1CCN(c2cn[nH]c(=O)c2Cl)C1 (stereo partly drawn) [P-0426, (R)-1-(5-chloro-6-oxo-1,6-dihydropyridazin-4-yl)pyrrolidin-3-yl spiro[2.4]heptan-4-ylcarbamate]",0.001 to 10,0.001 to 10
"N#CC12CC(NC(=O)O[C@@H]3CCN(c4cn[nH]c(=O)c4Cl)C3)(C1)C2 [P-0427, (R)-1-(5-chloro-6-oxo-1,6-dihydropyridazin-4-yl)pyrrolidin-3-yl (3-cyanobicyclo[1.1.1]pentan-1-yl)carbamate]",0.001 to 10,0.001 to 10
"O=C(NC12CC(C1)C2)O[C@@H]1CCN(c2cn[nH]c(=O)c2Cl)C1 [P-0428, (R)-1-(5-chloro-6-oxo-1,6-dihydropyridazin-4-yl)pyrrolidin-3-yl bicyclo[1.1.1]pentan-1-ylcarbamate]",0.001 to 10,0.001 to 10
"O=C(NC1(CO)CCCC1)O[C@@H]1CCN(c2cn[nH]c(=O)c2Cl)C1 [P-0429, (R)-1-(5-chloro-6-oxo-1,6-dihydropyridazin-4-yl)pyrrolidin-3-yl (1-(hydroxymethyl)cyclopentyl) carbamate]",0.001 to 10,0.001 to 10
"O=C(Cn1ncc(N2CC[C@@H](OC(=O)NC3CCC(F)(F)CC3)C2)c(Cl)c1=O)NO [P-0430, (R)-1-(5-chloro-1-(2-(hydroxyamino)-2-oxoethyl)-6-oxo-1,6-dihydropyridazin-4-yl)pyrrolidin-3-yl (4,4-difluorocyclohexyl)carbamate]",0.001 to 10,10 to 100
"O=C(NC1CC(F)(F)C1)O[C@@H]1CCN(c2cnn(CCO)c(=O)c2Cl)C1 [P-0431, (R)-1-(5-chloro-1-(2-hydroxyethyl)-6-oxo-1,6-dihydropyridazin-4-yl)pyrrolidin-3-yl (3,3-difluorocyclobutyl)carbamate]",0.001 to 10,0.001 to 10
"CC1(NC(=O)O[C@@H]2CCN(c3cn[nH]c(=O)c3Cl)C2)CC(F)(F)C1 [P-0432, (R)-1-(5-chloro-6-oxo-1,6-dihydropyridazin-4-yl)pyrrolidin-3-yl (3,3-difluoro-1-methylcyclobutyl)carbamate]",0.001 to 10,0.001 to 10
"O=C(NC12CC(F)(C1)C2)O[C@@H]1CCN(c2cn[nH]c(=O)c2Cl)C1 [P-0433, (R)-1-(5-chloro-6-oxo-1,6-dihydropyridazin-4-yl)pyrrolidin-3-yl (3-fluorobicyclo[1.1.1]pentan-1-yl)carbamate]",0.001 to 10,0.001 to 10
"O=C(N[C@H]1CC[C@@H](NC2CCC2)CC1)O[C@@H]1CCN(c2cn[nH]c(=O)c2Cl)C1 [P-0434, (R)-1-(5-chloro-6-oxo-1,6-dihydropyridazin-4-yl)pyrrolidin-3-yl ((1s,4S)-4-(cyclobutylamino)cyclohexyl) carbamate]",0.001 to 10,0.001 to 10
"NCCn1ncc(N2CC[C@@H](OC(=O)N[C@H]3CC[C@@H](NC(=O)NC4CC4)CC3)C2)c(Cl)c1=O [P-0435, (R)-1-(1-(2-aminoethyl)-5-chloro-6-oxo-1,6-dihydropyridazin-4-yl)pyrrolidin-3-yl ((1s,4S)-4-(3-cyclopropylureido)cyclohexyl) carbamate]",0.001 to 10,0.001 to 10
"C#CC1(NC(=O)O[C@@H]2CCN(c3cn[nH]c(=O)c3Cl)C2)CCCCC1 [P-0436, (R)-1-(5-chloro-6-oxo-1,6-dihydropyridazin-4-yl)pyrrolidin-3-yl (1-ethynylcyclohexyl)carbamate]",0.001 to 10,0.001 to 10
"CC1(NC(=O)O[C@@H]2CCN(c3cn[nH]c(=O)c3Cl)C2)CCC(F)(F)CC1 [P-0437, (R)-1-(5-chloro-6-oxo-1,6-dihydropyridazin-4-yl)pyrrolidin-3-yl (4,4-difluoro-1-methylcyclohexyl)carbamate]",0.001 to 10,0.001 to 10
"O=C(NC1CCN(C(=O)Nc2ncccc2F)CC1)O[C@@H]1CCN(c2cn[nH]c(=O)c2Cl)C1 [P-0438, (R)-1-(5-chloro-6-oxo-1,6-dihydropyridazin-4-yl)pyrrolidin-3-yl (1-((3-fluoropyridin-2-yl)carbamoyl)piperidin-4-yl)carbamate]",0.001 to 10,0.001 to 10
"CC1(NC(=O)O[C@@H]2CCN(c3cnn(CCO)c(=O)c3Cl)C2)CC(F)(F)C1 [P-0439, (R)-1-(5-chloro-1-(2-hydroxyethyl)-6-oxo-1,6-dihydropyridazin-4-yl)pyrrolidin-3-yl (3,3-difluoro-1-methylcyclobutyl)carbamate]",0.001 to 10,0.001 to 10

# Other lines, results leading:
IC50 [1] [µM],IC50 (human CD73) [µM],SMILES
0.001 to 10,0.001 to 10,"CC1(C)CCCCC1NC(=O)O[C@@H]1CCN(c2cn[nH]c(=O)c2Cl)C1 (stereo partly drawn) [P-0413, (R)-1-(5-chloro-6-oxo-1,6-dihydropyridazin-4-yl)pyrrolidin-3-yl (2,2-dimethylcyclohexyl)carbamate]"
0.001 to 10,0.001 to 10,"NCCn1ncc(N2CC[C@@H](OC(=O)NC3CCC(F)(F)CC3)C2)c(Cl)c1=O [P-0414, (R)-1-(1-(2-aminoethyl)-5-chloro-6-oxo-1,6-dihydropyridazin-4-yl)pyrrolidin-3-yl (4,4-difluorocyclohexyl)carbamate]"
0.001 to 10,0.001 to 10,"NCCn1ncc(N2CC[C@@H](OC(=O)NC3CCCC3)C2)c(Cl)c1=O [P-0415, (R)-1-(1-(2-aminoethyl)-5-chloro-6-oxo-1,6-dihydropyridazin-4-yl)pyrrolidin-3-yl cyclopentylcarbamate]"
0.001 to 10,0.001 to 10,"O=C(NC1CCN(C(=O)c2cccnc2)CC1)O[C@@H]1CCN(c2cn[nH]c(=O)c2Cl)C1 [P-0416, (R)-1-(5-chloro-6-oxo-1,6-dihydropyridazin-4-yl)pyrrolidin-3-yl (1-nicotinoylpiperidin-4-yl)carbamate]"
0.001 to 10,0.001 to 10,"O=C(NC1CCN(C(=O)c2cccnc2Cl)CC1)O[C@@H]1CCN(c2cn[nH]c(=O)c2Cl)C1 [P-0417, (R)-1-(5-chloro-6-oxo-1,6-dihydropyridazin-4-yl)pyrrolidin-3-yl (1-(2-chloronicotinoyl)piperidin-4-yl)carbamate]"
0.001 to 10,0.001 to 10,"O=C(NC1CCN(C(=O)c2ccc(Cl)nc2)CC1)O[C@@H]1CCN(c2cn[nH]c(=O)c2Cl)C1 [P-0418, (R)-1-(5-chloro-6-oxo-1,6-dihydropyridazin-4-yl)pyrrolidin-3-yl (1-(6-chloronicotinoyl)piperidin-4-yl)carbamate]"
0.001 to 10,0.001 to 10,"O=C(NC1CCN(C(=O)c2ccc(C(F)(F)F)nc2)CC1)O[C@@H]1CCN(c2cn[nH]c(=O)c2Cl)C1 [P-0419, (R)-1-(5-chloro-6-oxo-1,6-dihydropyridazin-4-yl)pyrrolidin-3-yl (1-(6-(trifluoromethyl)nicotinoyl)piperidin-4-yl)carbamate]"
0.001 to 10,0.001 to 10,"O=C(NC1CCN(C(=O)Cc2ccccc2Br)CC1)O[C@@H]1CCN(c2cn[nH]c(=O)c2Cl)C1 [P-0420, (R)-1-(5-chloro-6-oxo-1,6-dihydropyridazin-4-yl)pyrrolidin-3-yl (1-(2-(2-bromophenyl)acetyl)piperidin-4-yl)carbamate]"
0.001 to 10,0.001 to 10,"O=C(NC1CCN(C(=O)Cc2ccccc2Cl)CC1)O[C@@H]1CCN(c2cn[nH]c(=O)c2Cl)C1 [P-0421, (R)-1-(5-chloro-6-oxo-1,6-dihydropyridazin-4-yl)pyrrolidin-3-yl (1-(2-(2-chlorophenyl)acetyl)piperidin-4-yl)carbamate]"
0.001 to 10,0.001 to 10,"O=C(NC1CCN(C(=O)Cc2c(F)cccc2Cl)CC1)O[C@@H]1CCN(c2cn[nH]c(=O)c2Cl)C1 [P-0422, (R)-1-(5-chloro-6-oxo-1,6-dihydropyridazin-4-yl)pyrrolidin-3-yl (1-(2-(2-chloro-6-fluorophenyl)acetyl)piperidin-4-yl)carbamate]"
0.001 to 10,0.001 to 10,"O=C(NC1C2CCC1CC(O)C2)O[C@@H]1CCN(c2cn[nH]c(=O)c2Cl)C1 (stereo partly drawn) [P-0423, (R)-1-(5-chloro-6-oxo-1,6-dihydropyridazin-4-yl)pyrrolidin-3-yl (3-hydroxybicyclo[3.2.1]octan-8-yl)carbamate]"
